Laboratory results published in patent US12570923B2, “Tuning sulfonation and controlling oleo-furan surfactant compositions” (SIRONIX RENEWABLES, INC., priority 2021, dated 2026).

Assays:
Type in all cases: physicochemical
[1] = Critical micelle concentration
Experimental: (§1) Certain surfactant properties and performance metrics of synthesized surfactants structures according to General Structure 1 (GS1), including several exemplary surfactant blends prepared according to the methods disclosed previously herein, were measured. […] For example, the α-OMFS-12-1/O surfactant with a sulfonate on the surfactant's alkyl chain provides faster wetting kinetics, as compared to the ring sulfonate 4-OMFS-12-1/O which has slower fabric wetting kinetics yet generates more foam in high shear conditions, or the disulfonate surfactant sulfonated on both the ring and alkyl chain (4,α-OMFS-12-1/O) which has slower fabric wetting and generates less foam than either of the aforementioned monosulfonates surfactants, yet has a higher solubility that can be helpful in building product formulations. Accordingly, these differing performance metrics can be leveraged by selecting the particular disclosed surfactant structure corresponding to the performance metrics useful in a specific application of the surfactant structure.

[2] = Krafft point (temperature below which the surfactant forms a solid precipitate)
Experimental: as §1

[3] = Solubility in deionized water; conditions: deionized water at 20° C.
Experimental: Certain surfactant properties and performance metrics of synthesized surfactants structures according to General Structure 1 (GS1), including several exemplary surfactant blends prepared according to the methods disclosed previously herein, were measured.

[4] = Surface tension at critical micelle concentration; conditions: at CMC
Experimental: as §1

SMILES	CMC (critical micelle concentration) [1] [ppm]	Krafft Point [2] [°C]	Solubility [3] [mg/mL]	Surface Tension at critical micelle concentration [4] [mN/m]
CCCCCCCCCCC(C(=O)c1cc(S(=O)(=O)O)c(C)o1)S(=O)(=O)O.N.N (stereo not drawn) [NH4^+4,α-OMFS-12-1/0]	3545	<0	500	39
CCCCCCCCCCC(C(=O)c1cc(S(=O)(=O)[O-])c(C)o1)S(=O)(=O)[O-].[Na+].[Na+] (stereo not drawn) [Na^+ 4,α-OMFS-12-1/0]	–	<0	900	–
CCCCCCCCCCCCC(C(=O)c1cc(S(=O)(=O)[O-])c(C)o1)S(=O)(=O)[O-].[Na+].[Na+] (stereo not drawn) [Na^+ 4,α-OMFS-14-1/0]	–	<0	600	–
CCCCCCCCCCCCCCCCC(C(=O)c1cc(S(=O)(=O)[O-])c(C)o1)S(=O)(=O)[O-].[Na+].[Na+] (stereo not drawn) [Na^+ 4,α-OMFS-18-1/0]	–	<0	–	–
CCCCCCCCCCCC(=O)c1cc(S(=O)(=O)[O-])c(C)o1.[Na+] [Na^+ 4-OMFS-12-1/0]	1480	<0	800	42
CCCCCCCCCCC(C(=O)c1ccc(C)o1)S(=O)(=O)[O-].[Na+] (stereo not drawn) [Na^+ α-OMFS-12-1/0]	–	<0	800	–
